This is an account of results in patent publication US8846708B2, “Salt of a pyrimidin derivative” (Laboratorios Senosiain S.A. de C.V., priority 2010, dated 2014).

SMILES strings stand for the structures.

Data set [1] can be described thus: Description / flowability of the salt powder. It counts as physicochemical.
For data set [2] the following is noted: in vivo; cited from earlier work.
For another data set, the system named is proteins. The note with it: cited from earlier work.
Another data set is described as follows: physchem. As for the experimental part:
Additionally, a comparative solubility test was performed between rosuvastatin calcium and rosuvastatin lysine.

The conditions of data set [3]: cited from earlier work.

What is called solubility is how much of the substance goes into solution per volume. For `CC(C)c1nc(N(C)S(C)(=O)=O)nc(-c2ccc(F)cc2)c1/C=C/[C@@H](O)C[C@@H](O)CC(=O)O` [rosuvastatin calcium, (3R,5S,6E)-7-[4-(4-fluorophenyl)-2-(N-methylmethanesulfonamide)-6-(propan-2-yl)pyrimidin-5-yl]-3,5-dihydroxihept-6-enoic acid], the “Description: flowability” value in data set [1] was “without flowability”. Besides, in data set [2], the Absolute bioavailability entry is “approximately 20%”, the Excretion in feces was 90% and the Excretion in urine was 10%. Further, the Binding to proteins in the data set with proteins was 88%. Moreover, in the data set “physchem”, the “Solubility, HCl 10%” value is recorded as “It sticks to the bottom of the container” and the “Solubility, Methanol” value is “Taffy”. This compound yielded a solubility in the data set “physchem” (aqueous buffer) of 600 µg/mL. Further, the solubility in “physchem” (organic solvent or mixture) amounted to 10000 µg/mL. In the data set “physchem” (water), this compound yielded a solubility of 5300 µg/mL.

As for `CC(C)c1nc(N(C)S(C)(=O)=O)nc(-c2ccc(F)cc2)c1/C=C/[C@@H](O)C[C@@H](O)CC(=O)O` [Rosuvastatin, (3R,5S,6E)-7-[4-(4-fluorophenyl)-2-(N-methylmethanesulfonamide)-6-(propan-2-yl)pyrimidin-5-yl]-3,5-dihydroxihept-6-enoic acid], in data set [3], the “Solubility in water” value is “slightly soluble in water”.
